One test deals with T1, JNK3 (Homo sapiens, UniProt P53779).
T1 construct: purchased Reaction Biology Corp
The settings on record: cited from earlier work.

Test [1] has as its target T2, AMPK(A2/B1/G1) (Homo sapiens, UniProt P54619+P54646+Q9Y478).
T2 construct: purchased Reaction Biology Corp
In words: Kinase panel assay (radiolabelled). It counts as biochemical. As to conditions: 30 μM compound, ATP 10 μM; duplicates Data 1/Data 2; read-out: % Enzyme Activity (relative to DMSO controls).

Test [2] has as its target T3, AMPK(A2/B1/G1) (Homo sapiens, UniProt P54646).
T3 construct: purchased Reaction Biology Corp
The test is described as follows: Kinase panel assay (radiolabelled). It counts as biochemical. The settings on record: 30 μM compound, ATP 10 μM; duplicates Data 1/Data 2.

The target of a further test is T4, Haspin (Homo sapiens, UniProt Q8TF76).
T4 construct: purchased Reaction Biology Corp
T4 sequence (Q8TF76 1-798): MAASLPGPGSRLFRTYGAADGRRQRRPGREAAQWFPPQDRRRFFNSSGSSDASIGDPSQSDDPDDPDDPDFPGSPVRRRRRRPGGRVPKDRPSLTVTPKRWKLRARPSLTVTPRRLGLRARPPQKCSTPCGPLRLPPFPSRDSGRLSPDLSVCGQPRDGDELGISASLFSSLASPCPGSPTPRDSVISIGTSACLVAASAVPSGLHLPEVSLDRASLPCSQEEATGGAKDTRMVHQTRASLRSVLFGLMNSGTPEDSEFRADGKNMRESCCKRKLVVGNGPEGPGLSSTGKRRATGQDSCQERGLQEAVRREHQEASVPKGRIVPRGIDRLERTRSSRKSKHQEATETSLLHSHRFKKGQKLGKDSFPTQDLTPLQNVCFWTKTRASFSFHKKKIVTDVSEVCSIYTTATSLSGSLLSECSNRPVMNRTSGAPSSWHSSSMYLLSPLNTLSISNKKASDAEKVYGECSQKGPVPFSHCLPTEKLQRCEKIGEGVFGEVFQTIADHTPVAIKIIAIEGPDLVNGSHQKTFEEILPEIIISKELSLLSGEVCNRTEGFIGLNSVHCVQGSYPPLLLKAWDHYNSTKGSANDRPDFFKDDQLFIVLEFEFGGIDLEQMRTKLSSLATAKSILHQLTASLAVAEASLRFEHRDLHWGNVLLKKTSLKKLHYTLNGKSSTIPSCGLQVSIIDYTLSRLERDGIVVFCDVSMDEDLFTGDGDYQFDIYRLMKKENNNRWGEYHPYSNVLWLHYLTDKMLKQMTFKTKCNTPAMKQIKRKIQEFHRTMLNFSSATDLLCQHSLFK
The test is described as follows: Kinase panel assay (radiolabelled). It counts as biochemical. As to conditions: ATP 10 μM.

The next test deals with T5, JNK2 (Homo sapiens, UniProt P45984).
T5 construct: purchased Reaction Biology Corp
The test is described as follows: Kinase panel assay (radiolabelled). As to conditions: ATP 10 μM. It counts as biochemical.

A further test has as its target T6, MST3/STK24 (Homo sapiens, UniProt Q9Y6E0).
T6 construct: purchased Reaction Biology Corp
The test is described as follows: Kinase panel assay (radiolabelled). It counts as biochemical. As to conditions: ATP 10 μM.

The target of another test is T7, TLK1 (Homo sapiens, UniProt Q9UKI8).
T7 construct: purchased Reaction Biology Corp
T7 sequence (Q9UKI8 1-766): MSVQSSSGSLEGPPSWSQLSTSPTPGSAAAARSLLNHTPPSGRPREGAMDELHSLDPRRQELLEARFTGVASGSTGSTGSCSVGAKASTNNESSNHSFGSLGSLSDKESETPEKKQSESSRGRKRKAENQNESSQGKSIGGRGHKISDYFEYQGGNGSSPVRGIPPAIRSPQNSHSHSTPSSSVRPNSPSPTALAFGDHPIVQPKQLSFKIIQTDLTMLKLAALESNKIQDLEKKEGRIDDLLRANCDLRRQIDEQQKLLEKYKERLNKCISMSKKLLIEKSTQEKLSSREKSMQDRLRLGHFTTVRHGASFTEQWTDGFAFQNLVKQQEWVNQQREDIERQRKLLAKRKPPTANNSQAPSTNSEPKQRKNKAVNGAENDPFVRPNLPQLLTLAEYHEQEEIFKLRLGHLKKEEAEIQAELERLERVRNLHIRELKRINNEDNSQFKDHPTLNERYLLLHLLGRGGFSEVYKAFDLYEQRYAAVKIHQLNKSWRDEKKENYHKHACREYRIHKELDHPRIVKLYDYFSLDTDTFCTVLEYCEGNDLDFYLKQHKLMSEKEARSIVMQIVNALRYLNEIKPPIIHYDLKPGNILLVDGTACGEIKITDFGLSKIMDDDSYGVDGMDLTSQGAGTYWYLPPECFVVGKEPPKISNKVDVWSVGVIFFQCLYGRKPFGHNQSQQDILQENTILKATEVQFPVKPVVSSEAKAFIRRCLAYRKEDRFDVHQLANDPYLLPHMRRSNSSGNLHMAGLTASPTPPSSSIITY
In words: Kinase panel assay (radiolabelled). It counts as biochemical. The settings on record: ATP 10 μM.

For the next test, the target named is T8, PI3Kg (p110g) (Homo sapiens, UniProt P48736).
T8 construct: purchased Reaction Biology Corp
The test is described as follows: Kinase panel assay (lipid kinase). The test is classed as biochemical. As to conditions: 30 μM compound, ATP 10 μM, duplicates Data 1/Data 2.

The mark [3] stands for this setting: 30 μM compound, duplicates Data 1/Data 2.
The mark [4] stands for this setting: 30 μM compound, duplicates Data 1/Data 2, read-out: % Enzyme Activity (relative to DMSO controls).
The mark [5] stands for this setting: 30 μM, average ± SD, read-out: % Residual Activity at 30 μM.

Where two headings read alike, the source gives them in different places.

T6 sequence (Q9Y6E0 whole entry): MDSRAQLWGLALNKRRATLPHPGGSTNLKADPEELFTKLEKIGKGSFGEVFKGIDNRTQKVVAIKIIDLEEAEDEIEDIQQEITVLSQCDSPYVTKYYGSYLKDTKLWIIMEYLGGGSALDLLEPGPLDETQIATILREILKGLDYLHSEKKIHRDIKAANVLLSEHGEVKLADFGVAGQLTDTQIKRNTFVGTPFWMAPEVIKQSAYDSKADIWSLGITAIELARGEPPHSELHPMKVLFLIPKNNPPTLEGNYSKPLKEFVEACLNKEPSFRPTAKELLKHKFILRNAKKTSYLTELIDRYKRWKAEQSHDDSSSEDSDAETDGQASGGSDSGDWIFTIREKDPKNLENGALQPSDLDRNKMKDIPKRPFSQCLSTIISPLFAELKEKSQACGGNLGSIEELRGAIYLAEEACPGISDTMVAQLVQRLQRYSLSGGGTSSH
T5 sequence (P45984 whole entry): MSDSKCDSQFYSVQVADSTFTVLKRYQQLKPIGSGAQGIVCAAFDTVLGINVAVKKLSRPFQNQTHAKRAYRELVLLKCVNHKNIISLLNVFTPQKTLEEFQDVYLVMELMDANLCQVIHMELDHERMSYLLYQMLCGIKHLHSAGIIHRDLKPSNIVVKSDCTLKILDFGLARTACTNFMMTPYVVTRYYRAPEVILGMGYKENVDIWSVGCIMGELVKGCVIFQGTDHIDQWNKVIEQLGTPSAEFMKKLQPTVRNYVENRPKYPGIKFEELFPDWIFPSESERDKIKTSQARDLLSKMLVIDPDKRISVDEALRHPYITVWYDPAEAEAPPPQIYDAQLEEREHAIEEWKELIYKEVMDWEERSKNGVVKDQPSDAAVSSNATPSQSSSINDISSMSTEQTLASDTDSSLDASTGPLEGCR
T8 sequence (P48736 whole entry): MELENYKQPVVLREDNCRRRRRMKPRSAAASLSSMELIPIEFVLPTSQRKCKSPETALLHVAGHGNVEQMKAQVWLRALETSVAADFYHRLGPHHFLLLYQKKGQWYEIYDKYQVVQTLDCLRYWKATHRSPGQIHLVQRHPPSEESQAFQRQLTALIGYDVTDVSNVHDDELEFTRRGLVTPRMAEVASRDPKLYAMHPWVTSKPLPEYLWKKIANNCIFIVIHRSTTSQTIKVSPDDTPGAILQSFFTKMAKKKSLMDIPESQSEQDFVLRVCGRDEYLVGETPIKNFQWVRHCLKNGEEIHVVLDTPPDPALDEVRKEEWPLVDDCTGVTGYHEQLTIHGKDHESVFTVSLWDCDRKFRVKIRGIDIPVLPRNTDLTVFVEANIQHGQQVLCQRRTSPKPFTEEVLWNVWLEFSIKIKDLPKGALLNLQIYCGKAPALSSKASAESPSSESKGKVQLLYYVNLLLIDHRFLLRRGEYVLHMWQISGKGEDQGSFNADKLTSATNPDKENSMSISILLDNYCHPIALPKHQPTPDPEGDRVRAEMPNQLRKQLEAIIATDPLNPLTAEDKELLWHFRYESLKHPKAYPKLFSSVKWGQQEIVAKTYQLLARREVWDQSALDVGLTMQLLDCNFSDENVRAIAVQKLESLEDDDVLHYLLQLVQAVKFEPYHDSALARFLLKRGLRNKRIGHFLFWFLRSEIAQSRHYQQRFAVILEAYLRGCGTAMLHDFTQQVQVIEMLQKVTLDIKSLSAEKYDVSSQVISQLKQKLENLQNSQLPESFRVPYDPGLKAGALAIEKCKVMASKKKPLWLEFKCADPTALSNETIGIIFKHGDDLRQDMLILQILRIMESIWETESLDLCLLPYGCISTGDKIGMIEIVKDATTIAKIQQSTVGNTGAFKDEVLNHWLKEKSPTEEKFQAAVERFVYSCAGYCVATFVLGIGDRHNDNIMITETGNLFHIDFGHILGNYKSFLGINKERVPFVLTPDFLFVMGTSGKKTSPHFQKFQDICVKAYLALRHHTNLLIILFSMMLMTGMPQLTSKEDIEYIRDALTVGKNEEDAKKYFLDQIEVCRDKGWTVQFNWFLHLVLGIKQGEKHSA
T1 sequence (P53779 whole entry): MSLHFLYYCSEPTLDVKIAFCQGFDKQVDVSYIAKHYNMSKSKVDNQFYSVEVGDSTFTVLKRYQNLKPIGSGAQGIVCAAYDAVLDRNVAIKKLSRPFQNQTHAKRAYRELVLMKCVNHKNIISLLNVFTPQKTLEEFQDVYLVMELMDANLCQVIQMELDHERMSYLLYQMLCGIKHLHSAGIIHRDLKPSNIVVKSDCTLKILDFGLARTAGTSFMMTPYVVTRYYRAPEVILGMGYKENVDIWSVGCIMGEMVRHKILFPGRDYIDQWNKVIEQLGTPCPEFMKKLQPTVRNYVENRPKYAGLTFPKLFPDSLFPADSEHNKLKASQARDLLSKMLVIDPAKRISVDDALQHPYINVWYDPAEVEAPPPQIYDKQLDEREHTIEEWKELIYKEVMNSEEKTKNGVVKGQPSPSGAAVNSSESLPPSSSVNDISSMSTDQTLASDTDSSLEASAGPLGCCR
T3 sequence (P54646 whole entry): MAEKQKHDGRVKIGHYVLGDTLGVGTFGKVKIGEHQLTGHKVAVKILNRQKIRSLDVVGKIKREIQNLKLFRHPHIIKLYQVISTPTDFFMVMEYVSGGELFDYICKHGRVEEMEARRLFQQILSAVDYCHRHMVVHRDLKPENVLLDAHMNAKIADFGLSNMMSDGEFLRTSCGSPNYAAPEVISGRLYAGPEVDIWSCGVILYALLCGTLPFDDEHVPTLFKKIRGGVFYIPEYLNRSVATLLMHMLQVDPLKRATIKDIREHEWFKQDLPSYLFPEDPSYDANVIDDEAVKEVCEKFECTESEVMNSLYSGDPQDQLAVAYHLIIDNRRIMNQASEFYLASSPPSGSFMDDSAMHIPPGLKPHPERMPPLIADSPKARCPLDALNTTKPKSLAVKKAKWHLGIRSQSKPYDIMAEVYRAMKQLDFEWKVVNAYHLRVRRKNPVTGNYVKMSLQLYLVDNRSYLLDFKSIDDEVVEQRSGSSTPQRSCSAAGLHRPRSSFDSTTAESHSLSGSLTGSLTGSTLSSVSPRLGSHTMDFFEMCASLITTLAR
T3 sequence (Q9Y478 whole entry partner): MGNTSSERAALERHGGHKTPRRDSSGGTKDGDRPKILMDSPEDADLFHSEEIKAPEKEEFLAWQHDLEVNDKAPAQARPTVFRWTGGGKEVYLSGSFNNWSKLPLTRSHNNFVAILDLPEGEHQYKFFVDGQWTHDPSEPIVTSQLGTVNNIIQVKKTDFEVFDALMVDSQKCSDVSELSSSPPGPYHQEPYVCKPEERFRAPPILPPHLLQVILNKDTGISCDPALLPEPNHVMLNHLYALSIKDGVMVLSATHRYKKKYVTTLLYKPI
T3 sequence (P54619 whole entry partner): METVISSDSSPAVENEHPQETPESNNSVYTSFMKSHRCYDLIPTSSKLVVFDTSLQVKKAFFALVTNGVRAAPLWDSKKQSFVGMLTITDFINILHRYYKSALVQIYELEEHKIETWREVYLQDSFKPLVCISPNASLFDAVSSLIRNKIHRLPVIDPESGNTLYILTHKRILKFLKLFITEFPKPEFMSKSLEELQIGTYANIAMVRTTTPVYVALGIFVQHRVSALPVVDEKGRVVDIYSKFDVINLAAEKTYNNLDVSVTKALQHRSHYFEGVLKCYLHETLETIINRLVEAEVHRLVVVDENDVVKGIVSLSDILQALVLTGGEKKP
T2 sequence (P54646 whole entry): as the sequence (P54646 whole entry) above
T2 sequence (Q9Y478 whole entry partner): as the sequence (Q9Y478 whole entry partner) above
T2 sequence (P54619 whole entry partner): as the sequence (P54619 whole entry partner) above

Consider `O=C1C=CC2(C=C1)OCC(Cc1cc(C(F)(F)F)cc(C(F)(F)F)c1)C(=O)N2c1ccccc1` (racemic) [1c], for which the “% Residual Activity at 30 μM” value at JNK3 is 72.0 ± 2.0%.

Turning to `O=C1C=CC2(C=C1)OCC(Cc1cn(-c3cccc(Cl)c3)nn1)C(=O)N2c1ccccc1` (centres unmarked) [2d, 3-((1-(3-Chlorophenyl)-1H-1,2,3-triazol-4-yl)methyl)-5-phenyl-1-oxa-5-azaspiro[5.5]undeca-7,10-diene-4,9-dione], the remaining activity at 30 µM at AMPK(A2/B1/G1) [1] worked out at 50.8%; on Haspin (setting [4]), 71.6%; on Haspin (setting [5]), 70.9 ± 0.9%; at JNK2 (setting [4]), 80.3%; at JNK2 (setting [5]) it was 80 ± 0.4%; on MST3/STK24 (setting [4]) it was 94.2%. Moreover, the remaining activity at 30 µM was 91.8 ± 3.4% at MST3/STK24 (setting [5]), 82.1% at TLK1 (setting [4]), 81.7 ± 0.5% at TLK1 (setting [5]) and 87.4% on PI3Kg (p110g) (read-out: % Enzyme Activity (relative to DMSO controls)). The “% Enzyme Activity (relative to DMSO controls)” value is recorded as 47.50% at AMPK(A2/B1/G1) [2]; 70.31% at Haspin (setting [3]); 79.67% at JNK2 (setting [3]); 89.43% on MST3/STK24 (setting [3]); 81.34% at TLK1 (setting [3]); 85.15% on PI3Kg (p110g).

(Values after paper PMC7719162, “Positioning of an unprecedented spiro[5.5]undeca ring system into kinase inhibitor space” (Scientific Reports, 2020).)
